The source of these data is patent publication US4263294A, “Maytansinoids, pharmaceutical compositions thereof and method of use thereof” (Takeda Chemical Industries, Ltd., priority 1978, dated 1981).

Experiment [1] concerns melanoma B-16 tumor cells. As to the kind of experiment: Antitumor activity, life span prolongation in mice with intraperitoneally transplanted melanoma B-16 (NCI protocol 1,300). The experiment is classed as in vivo. The settings on record: intraperitoneally once daily for 9 consecutive days. As to the method: Therapeutic tests were carried out in mice according to NCI-protocol 1,300, Cancer Chemother, Reports, Part 3, 1972, Vol. 3, No. 2, in which melanoma B-16 tumor cells had been intraperitoneally transplanted, compound (I) being administered intraperitoneally once daily for 9 consecutive days.

The test system of a further experiment is Tetrahymena pyriformis W. As to the kind of experiment: Antiprotozoal activity, growth inhibition by serial dilution method. It is filed as cell-based. The settings on record: 28° C., 44 to 48 hours, pH 7.0, serial dilution method. The procedure: Antiprotozoal activity of compound (I) was assayed with Tetrahymena pyriformis W as the test organism and a medium composed of 20 g tryptose-peptone (Difco Co.), 1 g yeast extract, 2 g glucose, 1000 ml distilled water, 10 ml 1 M phosphate buffer (pH 7.0) as the assay medium. The microorganism was incubated at 28° C. for 44 to 48 hours and the growth inhibitory activity of compound (I) was assayed by the serial dilution method.

In brackets after ≈: the same amount, converted by molar mass.

In general, MIC refers to the lowest concentration that inhibits growth of the organism. The low end stands for a more susceptible organism, the high end for a less susceptible organism. `COc1cc2cc(c1Cl)N(C)C(=O)CC(OC(=O)OC(C)C)C1(C)OC1C(C)C1CC(O)(NC(=O)O1)C(OC)C=CC=C(C)C2` (centres unmarked) [Maytansinol 3-isopropylcarbonate, maytansinol 3-isopropylcarbonate]: the “Antitumor activities B-16 (T/C%)” value is reported as 150% in experiment [1] (50 μg/kg), 171% in experiment [1] (100 μg/kg) and 171% in experiment [1] (200 μg/kg). The same molecule had an MIC against Tetrahymena pyriformis W of 4 to 8 µg/mL (≈ 6.14 to 12.3 µM).
Turning to `COc1cc2cc(c1Cl)N(C)C(=O)CC(OC(=O)Nc1ccccc1)C1(C)OC1C(C)C1CC(O)(NC(=O)O1)C(OC)C=CC=C(C)C2` (centres unmarked) [Maytansinol 3-(N-phenyl)carbamate, maytansinol 3-N-phenylcarbamate], the “Antitumor activities B-16 (T/C%)” value in experiment [1] (100 μg/kg) worked out at 123%; in experiment [1] (200 μg/kg), 151%; in experiment [1] (400 μg/kg), 161%. For the same molecule, the minimal inhibitory concentration (MIC) against Tetrahymena pyriformis W is ≥ 8 µg/mL.
